Experimental findings from patent publication US20100048575A1, “NOVEL TETRACYCLIC INHIBITORS OF CYSTEINE PROTEASES, THE PHARMACEUTICAL COMPOSITIONS THEREOF AND THEIR THERAPEUTIC APPLICATIONS” (priority 2006, published 2010) are described below.

For assay [1], the target named is T1, Uch-L3 (Homo sapiens, UniProt P15374).
T1 sequence (P15374 1-230): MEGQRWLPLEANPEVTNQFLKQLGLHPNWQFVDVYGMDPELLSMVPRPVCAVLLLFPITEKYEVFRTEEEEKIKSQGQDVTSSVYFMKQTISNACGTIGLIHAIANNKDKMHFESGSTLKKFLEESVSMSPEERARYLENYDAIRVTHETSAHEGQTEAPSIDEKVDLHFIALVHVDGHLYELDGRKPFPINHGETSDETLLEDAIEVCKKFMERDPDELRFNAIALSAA
Briefly: UCH-L3 activity assay (Ub-AMC). The class given is biochemical. As to conditions: 400 nM Ub-AMC, 13 pM enzyme, 30 min pre-incubation, 60 min at 37° C., sigmoidal fit; read-out: Uch-L3 (inhibition of cysteine protease activity). The procedure:
Uch-L3 was diluted in USP buffer (50 mM Tris HCl; 0.5 mM EDTA; 5 mM DTT; 0.01% Triton X-100; Bovine Serum Albumin 0.05 mg.ml^−1 pH7.6). Compounds stocks (100 mM) were stored at −20° C. in DMSO. Compounds were tested at the following final concentrations: 100 μM; 33.3 μM; 11.1 μM; 3.7 μM; 1.23 μM; 412 nM; 137 nM; 45.7 nM, 15.2 nM; 5 nM.
Reactions were performed as duplicates in Black LJL 96 well plates (HE microplates; Molecular Devices; 20 μl final reaction volume). The substrate concentration for Uch-L3 was 400 nM Ub-AMC (Boston Biochem). The concentration of the enzyme (Uch-L3) in specificity assays was 13 pM. The concentrations were determined in order to perform specificity assays under initial velocities at fixed substrate concentration. Compounds were pre-incubated with enzymes for 30 minutes at 25° C. Reactions were initiated by addition of substrate to the plates containing the enzymes (+/−compounds) diluted in assay buffer.
Reactions were incubated for 60 minutes at 37° C. Reactions were stopped by adding acetic acid (100 mM final). Readings were performed on a Pherastar Fluorescent Reader (BMG). δ Emission 380 nm; 6 Excitation=460 nm. Data (mean values +/−standard deviation) were analyzed as % of control (no compound) and plotted as percentage versus the Log of the compound concentration using GraphPad (Prism). Data were fitted to a sigmoidal model (variable slope).

Assay [2] has as its system HCT116 colon cancer cells. The experiment in a line: HCT116 cell viability and proliferation assay (MTS). The note with it: Homo sapiens, HCT-116, 72 hours, mean of 3 independent experiments, read-out: HCT116 GI50 D3. The class given is cell-based. The procedure: HCT116 colon cancer cells were obtained from ATCC (American Type Culture Collection), and maintained in Mc Coy's 5A medium containing 10% FBS, 3 mM glutamine and 1% penicillin/streptomycin. Cells were incubated at 37° C. in a humidified atmosphere containing 5% CO2.
Cell viability was assayed using the MTS technique in 96-well culture plates (CellTiter 96® Aqueous Non-Radioactive Cell Proliferation Assay, Promega) according to the manufacturer's instructions. MTS (3-(4,5-dimethylthiazol-2-yl)-5-(3-carboxymethoxyphenyl)-2-(4-sulfophenyl)-2H-tetrazolium) is a MTT-derived tetrazolium that is reduced in metabolically active cells into a soluble, cell-permeant formazan. The amount of formazan, detected by its absorbance at 492 nm is proportional to the number of living, metabolically active cells.
10^3 HCT116 cells were seeded per well. 24 hours later, the medium was changed and the cells treated in triplicate with the following concentrations of each compound: 10 μM-3.33 μM-1.11 μM-370 nM-123 nM-41 nM-14 nM and 5 nM. The compounds were diluted in 100% DMSO, whose final concentration on cells was kept at 0.5%.
Cells were incubated with the compounds for 72 hours, and their viability then assayed by the addition of MTS for 2 hours. Absorbance at 492 nm was measured directly from the 96-well culture plates. GI50 (Growth Inhibition 50) concentrations for each compound were calculated using a sigmoidal variable slope fit (Prism 4.0, Graphpad Softwares). Values represent mean of 3 independent experiments.

Take `ON=C1c2ccccc2-c2nn3nnnc3nc21` (mixture of isomers) [compound 7, 1,2,3,3a,4,10-hexaaza-cyclopenta[b]fluoren-9-one oxime]: the IC50 in assay [1] is 57 nM. In addition, the GI50 in assay [2] came to 363 nM.

For the molecule `CON=C1c2ccccc2-c2nn3c(C)nnc3nc21` (mixture of isomers) [5a, 3-Methyl-1,2,3a,4,10-pentaaza-cyclopenta[b]fluoren-9-one O-methyl-oxime], the IC50 in assay [1] turned out to be 410 nM. Moreover, in assay [2], the concentration for 50% growth inhibition (GI50) amounted to 1400 nM.

`C=CCON=C1c2ccccc2-c2nn3nnnc3nc21` (mixture of isomers) [compound 6, 1,2,3,3a,4,10-hexaaza-cyclopenta[b]fluoren-9-one O-allyl-oxime]: the IC50 in assay [1] was 32 nM. Further, the GI50 in assay [2] is 96 nM.

As to `C=CCON=C1c2ccccc2-c2nn3c(CC)nnc3nc21` (mixture of isomers) [10f, 3-Ethyl-1,2,3a,4,10-pentaaza-cyclopenta[b]fluoren-9-one O-allyl-oxime], the IC50 in assay [1] stood at 235 nM. The concentration for 50% growth inhibition (GI50) in assay [2] was determined as 2100 nM.

Consider `CCc1nnc2nc3c(nn12)-c1ccccc1C3=NOCc1ccccc1` (mixture of isomers) [10h, 3-Ethyl-1,2,3a,4,10-pentaaza-cyclopenta[b]fluoren-9-one O-benzyl-oxime], for which the GI50 in assay [2] amounted to 1910 nM.

For `COCCON=C1c2ccccc2-c2nn3nnnc3nc21` (mixture of isomers) [8b, 1,2,3,3a, 4,10-Hexaaza-cyclopenta[b]fluoren-9-one O-(2-methoxy-ethyl)-oxime], the IC50 in assay [1] was determined as 48 nM. Also, the GI50 in assay [2] was 273 nM.

With `CCON=C1c2ccccc2-c2nn3c(CC)nnc3nc21` (mixture of isomers) [10d, 3-Ethyl-1,2,3a,4,10-pentaaza-cyclopenta[b]fluoren-9-one O-ethyl-oxime], the GI50 in assay [2] was 3930 nM.

On to `C=CCON=C1c2ccccc2-c2nn3c(CCCC)nnc3nc21` (mixture of isomers) [5d, 3-Butyl-1,2,3a,4,10-pentaaza-cyclopenta[b]fluoren-9-one O-allyl-oxime], for which the IC50 in assay [1] stood at 250 nM. The GI50 in assay [2] worked out at 1010 nM.

For the molecule `C=CCON=C1c2ccccc2-c2nn3c(C)nnc3nc21` (mixture of isomers) [5b, 3-Methyl-1,2,3a,4,10-pentaaza-cyclopenta[b]fluoren-9-one O-allyl-oxime], in assay [1], the IC50 was 272 nM. In addition, in assay [2], the GI50 came to 1640 nM.

Regarding `CCc1nnc2nc3c(nn12)-c1ccccc1C3=NOC` (mixture of isomers) [10b, 3-Ethyl-1,2,3a,4,10-pentaaza-cyclopenta[b]fluoren-9-one O-methyl-oxime], the GI50 in assay [2] came to 3360 nM.

For `c1ccc(OCCCON=C2c3ccccc3-c3nn4nnnc4nc32)cc1` (mixture of isomers) [8c, 1,2,3,3a,4,10-Hexaaza-cyclopenta[b]fluoren-9-one O-(3-phenoxy-propyl)-oxime], the IC50 in assay [1] was found to be 121 nM. Besides, the GI50 in assay [2] worked out at 265 nM.

As to `CCCCCCCCCCON=C1c2ccccc2-c2nn3nnnc3nc21` (mixture of isomers) [8a, 1,2,3,3a, 4,10-Hexaaza-cyclopenta[b]fluoren-9-one O-decyl-oxime], the IC50 in assay [1] is 2000 nM. Further, the GI50 in assay [2] was found to be 398 nM.
